Literature values as cited in US20210251944A1, “METHODS FOR TREATING A CANCER RESISTANT TO AT LEAST ONE TYROSINE KINASE INHIBITOR” (Del Mar Pharmaceuticals (BC) Ltd., priority 2012, published 2021).
Like-named read-outs stand apart in the source and are kept apart here.

Columns and labels:
[1] = cited from earlier work
[2] = molecular target: glycogen synthase kinase-3β (GSK-3β) (Homo sapiens, UniProt P49841); conditions: cited from earlier work
[3] = tested on: CML; conditions: cited from earlier work; for rate of incomplete cytogenetic responses to imatinib: CML

Sequence of glycogen synthase kinase-3β (GSK-3β) (P49841 whole entry, species assumed): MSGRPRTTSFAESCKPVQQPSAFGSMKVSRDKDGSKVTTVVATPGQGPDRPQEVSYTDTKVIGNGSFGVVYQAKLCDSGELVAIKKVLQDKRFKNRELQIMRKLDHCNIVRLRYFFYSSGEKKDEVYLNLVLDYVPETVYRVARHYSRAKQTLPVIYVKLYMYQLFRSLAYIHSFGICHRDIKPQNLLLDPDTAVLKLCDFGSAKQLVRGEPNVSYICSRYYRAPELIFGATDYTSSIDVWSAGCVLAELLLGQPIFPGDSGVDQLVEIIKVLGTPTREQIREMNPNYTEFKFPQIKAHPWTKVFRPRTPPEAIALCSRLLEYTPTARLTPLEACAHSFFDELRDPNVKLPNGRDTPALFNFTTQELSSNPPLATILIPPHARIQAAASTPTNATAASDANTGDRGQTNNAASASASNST

O[C@H]([C@H](O)[C@@H](O)CBr)[C@H](O)CBr [Dibromodulcitol, dibromodulcitol]
absorption by the oral route [1]: rapid and fairly complete

CN1C(=O)/C(=C2/C(=O)Nc3ccccc32)c2ccccc21 [Meisoindigo, meisoindigo]
concentration for inhibition of glycogen synthase kinase-3β (GSK-3β) [2]: 5 to 50 nM

Cc1ccc(NC(=O)c2ccc(CN3CCN(C)CC3)cc2)cc1Nc1nccc(-c2cccnc2)n1 [imatinib]
rate of incomplete cytogenetic responses to imatinib ([3]; individuals in East Asia): ~50%
rate of incomplete cytogenetic responses to imatinib ([3]; individuals in Europe and North America): 26%
overall odds ratio for resistant disease, patients with the BIM deletion polymorphism compared to those without ([3]; chronic phase CML, first-line imatinib 400 mg/day, ELN criteria): 2.94
